Measurements taken from PubChem BioAssay AID1963845 (Molecular Pharmacology Branch, DTP, NCI, 2024).
“And” between values parts separate entries of the source, which are not always exact repeats. Equal values may be shown once.

Tested on: 429239-143-T-J1-PDC complex spheroid viability
Assay: Anticancer human tumor 429239-143-T-J1-PDC patient-derived small cell lung carcinoma cell line growth inhibition [POLQ]
Conditions: for viability, T/C: stronger effect = lower value
Method: Multicellular complex tumor spheroid response to Polymerase (POL) inhibitors (novobiocin, ART-558, RP6685) in combination with a variety of drugs and investigational agents in selected tumor cell lines
The POL inhibitors (novobiocin, ART-558, and RP6685) were evaluated both individually and in combination with standard of care and investigational anticancer small molecules within a complex spheroid model of solid tumors. . Complex spheroids include a stromal component modeled by human endothelial cells (HUVEC) and fibroblasts modeled by human mesenchymal stem cells (MSCs). The concentration ranges selected for each drug and investigational agent were based upon clinically achievable concentrations if the clinical Cmax of the agent was known.
Compounds. The drugs and investigational agents: novobiocin (NSC847541), ART-558 (NSC835418), RP-6685 (NSC848927), peposertib (NSC802822), ceralasertib (NSC780249), elimusertib (NSC800525), camonsertib (NSC841442), AZD-1390 (NSC803789), olaparib (NSC753686), talazoparib (NSC767125), rucaparib (NSC756644), sotorasib (NSC818433), MRTX-1133 (NSC836407), SN-38 (NSC673596), topotecan (NSC609699), epotoside (NSC141540), doxorubicin (NSC123127), gemcitabine (NSC613327), 5-fluorouracil (NSC19893), paclitaxel (NSC125973), vemurafenib (NSC761431), MSA-2 (NSC828583), SN-011 (NSC837082), adavosertib (NSC754352), prexasertib (NSC758257), carboplatin (NSC241240) and oxaliplatin (NSC266046), were obtained from the National Cancer Institute (NCI) Developmental Therapeutics Program Chemical Repository (21). The FDA-approved anticancer drug set is available from the Developmental Therapeutics Program at https://dtp.cancer.gov/organization/dscb/obtaining/. […] The stock solutions were prepared in dimethyl sulfoxide (DMSO, Sigma-Aldrich, St. Louis, MO, cat. D2650), except for the platinum compounds which were prepared in saline (Quality Biological, Gaithersburg, MD, cat. 114-055-101), at 800-fold the tested concentration and stored at -70 degrees C prior to their use. All drugs and investigational agents were tested over a range starting from a high concentration at or near the clinical Cmax and decreasing in half-log increments. If the clinical Cmax for an agent had not been determined, the highest concentration tested was 10 microM, except for SN-38, which was tested at a high concentration of 1 microM.
Cell Culture. All cells were maintained in an incubator at 37 degrees C and 5% CO2 with 95% humidity. The PDC lines were cultured according to standard operating procedures established by the NCI PDMR (https://pdmr.cancer.gov). Table 3 of the manuscript, lists the cell lines along with the number of the three cell types plated to form the mct-spheroids and media for tumor cell growth. After thawing, all PDC lines, except 997537-175-T-J1-PDC and 415267-285-R-J2-PDC, were cultured in Matrigel-coated flasks prepared with a working solution of 1X Ham's F-12 nutrient mix, without supplementation (Thermo Fisher Scientific, cat. 11765054), 100 U/mL penicillin-streptomycin (Thermo Fisher Scientific, cat. 15140122), and 2.5% Matrigel (Corning Inc., Corning, NY, cat. 354248) for the first three passages. The two PDC lines 997537-175-T-J1-PDC and 415267-285-R-J2-PDC were cultured on uncoated flasks. The 857933-349-R-J2-PDC line was cultured in 6C/Colon 1B media containing advanced DMEM/F-12 (Thermo Fisher Scientific, cat. 12634028), 10 mM HEPES (Thermo Fisher Scientific, cat. 15630080), 1X GlutaMAX supplement (Thermo Fisher Scientific, cat. 35050061), 0.1 mg/mL primocin (InvivoGen, San Diego, CA, cat. ant-pm-2), 10% defined fetal bovine serum, heat inactivated (HyClone Laboratories Inc., Logan, UT, cat. SH30070.03HI), 50% L-WRN conditioned media (ATCC, cat. CRL-3276), 1.25 mM N-Acetyl-L-cysteine (Sigma-Aldrich, cat. A9165), 10 mM nicotinamide (Sigma-Aldrich, cat. N0636), 1X B-27 supplement (Thermo Fisher Scientific, cat. 17504044), 1X N-2 supplement (Thermo Fisher Scientific, cat. […]

[1] = curve of first compound, second compound 0.0316 µM
[2] = curve of first compound, second compound 0.1 µM
[3] = curve of first compound, second compound 0.316 µM
[4] = curve of first compound, second compound 1 µM
[5] = curve of first compound, second compound 3.16 µM
[6] = curve of first compound, second compound 10 µM
[7] = second compound 0.0316 µM, first compound 0.0316 µM
[8] = second compound 0.0316 µM, first compound 0.1 µM
[9] = second compound 0.0316 µM, first compound 0.316 µM
[10] = second compound 0.0316 µM, first compound 1 µM
[11] = second compound 0.1 µM, first compound 0.0316 µM
[12] = second compound 0.1 µM, first compound 0.1 µM
[13] = second compound 0.1 µM, first compound 0.316 µM
[14] = second compound 0.1 µM, first compound 1 µM
[15] = second compound 0.316 µM, first compound 0.0316 µM
[16] = second compound 0.316 µM, first compound 0.1 µM
[17] = second compound 0.316 µM, first compound 0.316 µM
[18] = second compound 0.316 µM, first compound 1 µM
[19] = second compound 1 µM, first compound 0.0316 µM
[20] = second compound 1 µM, first compound 0.1 µM
[21] = second compound 1 µM, first compound 0.316 µM
[22] = second compound 1 µM, first compound 1 µM
[23] = second compound 3.16 µM, first compound 0.0316 µM
[24] = second compound 3.16 µM, first compound 0.1 µM
[25] = second compound 3.16 µM, first compound 0.316 µM
[26] = second compound 3.16 µM, first compound 1 µM
[27] = second compound 10 µM, first compound 0.0316 µM
[28] = second compound 10 µM, first compound 0.1 µM
[29] = second compound 10 µM, first compound 0.316 µM
[30] = second compound 10 µM, first compound 1 µM
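Further: luminescence signal used as surrogate measure of viable cells; spheroids exposed to compounds for seven days before readout.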
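Wherever viability, T/C is given: 100% = DMSO vehicle control viability as luminescence relative to vehicle.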

CC(C)n1c(=O)n(C)c2cnc3cc(F)c(-c4ccc(OCCCN5CCCCC5)nc4)cc3c21 + Nc1ccc(C#CCN(C(=O)Cc2ncc(C(F)(F)F)cc2C(F)(F)F)c2ccc(F)cc2)nn1
IC50 [1]: > 10000 nM
IC50 [2]: > 10000 nM
IC50 [3]: > 10000 nM
IC50 [4]: > 10000 nM
IC50 [5]: > 10000 nM
IC50 [6]: > 10000 nM
viability, T/C [7]: 98.5%
viability, T/C [8]: 107%
viability, T/C [9]: 92.2%
viability, T/C [10]: 109%
viability, T/C (second compound 0.0316 µM, first compound 3.16 µM): 102%
viability, T/C (second compound 0.0316 µM, first compound 10 µM): 97.8%
viability, T/C [11]: 102%
viability, T/C [12]: 105%
viability, T/C [13]: 99.9%
viability, T/C [14]: 102%
viability, T/C (second compound 0.1 µM, first compound 3.16 µM): 106%
viability, T/C (second compound 0.1 µM, first compound 10 µM): 90.9%
viability, T/C [15]: 101%
viability, T/C [16]: 107%
viability, T/C [17]: 93.3%
viability, T/C [18]: 104%
viability, T/C (second compound 0.316 µM, first compound 3.16 µM): 106%
viability, T/C (second compound 0.316 µM, first compound 10 µM): 91.1%
viability, T/C [19]: 99.1%
viability, T/C [20]: 101%
viability, T/C [21]: 105%
viability, T/C [22]: 102%
viability, T/C (second compound 1 µM, first compound 3.16 µM): 105%
viability, T/C (second compound 1 µM, first compound 10 µM): 93%
viability, T/C [23]: 97.1%
viability, T/C [24]: 91.4%
viability, T/C [25]: 98.9%
viability, T/C [26]: 98.6%
viability, T/C (second compound 3.16 µM, first compound 3.16 µM): 100%
viability, T/C (second compound 3.16 µM, first compound 10 µM): 91.1%
viability, T/C [27]: 105%
viability, T/C [28]: 103%
viability, T/C [29]: 97.3%
viability, T/C [30]: 99.4%
viability, T/C (second compound 10 µM, first compound 3.16 µM): 91.5%
viability, T/C (second compound 10 µM, first compound 10 µM): 94.3%

CC(C)n1c(=O)n(C)c2cnc3cc(F)c(-c4ccc(OCCCN5CCCCC5)nc4)cc3c21
viability, T/C (compound 0.0316 µM): 99.4% and 102% and 100%
viability, T/C (compound 0.1 µM): 94.7% and 101% (2×)
viability, T/C (compound 0.316 µM): 102% and 94.4% and 86.6%
viability, T/C (compound 1 µM): 89.1% and 102% and 95.7%
viability, T/C (compound 3.16 µM): 91.2% and 99.8% and 90.1%
viability, T/C (compound 10 µM): 60.3% and 99.5% and 74.6%
IC50 (curve of compound): > 10000 nM

COc1cc2cc(C(=O)CCC(=O)O)sc2cc1OC
viability, T/C (compound 0.0316 µM): 92.3% and 91.8% and 112%
viability, T/C (compound 0.1 µM): 105% and 102% and 92.5%
viability, T/C (compound 0.316 µM): 94.3% and 97.6% and 97.8%
viability, T/C (compound 1 µM): 108% and 109% and 97.7%
viability, T/C (compound 3.16 µM): 108% and 107% and 97.8%
viability, T/C (compound 10 µM): 97.3% and 104% and 87.3%
IC50 (curve of compound): > 10000 nM

C=CCn1c(=O)c2cnc(Nc3ccc(N4CCN(C)CC4)cc3)nc2n1-c1cccc(C(C)(C)O)n1 + COC1C(OC(N)=O)C(O)C(Oc2ccc3c(O)c(NC(=O)c4ccc(O)c(CC=C(C)C)c4)c(=O)oc3c2C)OC1(C)C
IC50 [1]: 576 nM
IC50 [2]: 464 nM
IC50 [3]: 591 nM
IC50 [4]: 580 nM
IC50 [5]: 632 nM
IC50 [6]: 600 nM
viability, T/C (second compound 0.0316 µM, first compound 0.00316 µM): 105%
viability, T/C (second compound 0.0316 µM, first compound 0.01 µM): 93%
viability, T/C [7]: 104%
viability, T/C [8]: 104%
viability, T/C [9]: 85.7%
viability, T/C [10]: 17.1%
viability, T/C (second compound 0.1 µM, first compound 0.00316 µM): 92%
viability, T/C (second compound 0.1 µM, first compound 0.01 µM): 104%
viability, T/C [11]: 92.6%
viability, T/C [12]: 105%
viability, T/C [13]: 66%
viability, T/C [14]: 17.8%
viability, T/C (second compound 0.316 µM, first compound 0.00316 µM): 110%
viability, T/C (second compound 0.316 µM, first compound 0.01 µM): 88.2%
viability, T/C [15]: 107%
viability, T/C [16]: 118%
viability, T/C [17]: 82.5%
viability, T/C [18]: 22.7%
viability, T/C (second compound 1 µM, first compound 0.00316 µM): 95.3%
viability, T/C (second compound 1 µM, first compound 0.01 µM): 83.5%
viability, T/C [19]: 101%
viability, T/C [20]: 88.7%
viability, T/C [21]: 82.2%
viability, T/C [22]: 21%
viability, T/C (second compound 3.16 µM, first compound 0.00316 µM): 98.8%
viability, T/C (second compound 3.16 µM, first compound 0.01 µM): 90%
viability, T/C [23]: 94.2%
viability, T/C [24]: 96.3%
viability, T/C [25]: 97.1%
viability, T/C [26]: 20%
viability, T/C (second compound 10 µM, first compound 0.00316 µM): 91.7%
viability, T/C (second compound 10 µM, first compound 0.01 µM): 83.2%
viability, T/C [27]: 85.1%
viability, T/C [28]: 83.7%
viability, T/C [29]: 84%
viability, T/C [30]: 22.8%
